Data as given in patent US8377993B2, “Insecticidal compound” (Dainihon Jochugiku Co., Ltd., priority 2010, dated 2013).
Entries after “also recorded” stand apart in the source; their conditions may differ.

Columns and labels:
Female house mosquitoes = test: Petri dish insecticidal efficacy test (KT100 and mortality after 24 hours); assay type: in vivo
From the text: The fractionated component E2-4-2 which is a mixture of compound A and compound B was subjected to the insecticidal efficacy test based on the test conditions shown in Table 3, wherein the concentration of the fractionated component E2-4-2, natural pyrethrin, and dl-d-T80-allethrin was further diluted for the test.

adults of house flies = details: cited from earlier work
[1] = tested on: adults of Blattella germanica; details: on the basis of the LD50 value by a microdropping method; cited from earlier work

In the case of `C=CCC1=C(C)C(OC(=O)C2C(C=C(C)C)C2(C)C)CC1=O` (racemic) [dl-d-T80-allethrin], the KT100 value (Female house mosquitoes; Table 4, 0.001 mg/6.15 cm^2) was 50 min, the “The mortality after 24 hours” value (Female house mosquitoes; Table 4, 0.001 mg/6.15 cm^2) was 83% and the KT100 value (Female house mosquitoes; Table 4, 0.01 mg/6.15 cm^2) was <5 min. For the same compound, the “The mortality after 24 hours” value (Female house mosquitoes; Table 4, 0.01 mg/6.15 cm^2) was 100%, the “The mortality after 24 hours” value (Female house mosquitoes; Table 4, 0.1 mg/6.15 cm^2) was 100% and the KT100 value (Female house mosquitoes; Table 4, 0.1 mg/6.15 cm^2, time to 100% knockdown) was <5 min. The KT100 value (Female house mosquitoes; Table 5, 10^−1 mg/6.15 cm^2) was <5 min, the “The mortality after 24 hours” value (Female house mosquitoes; Table 5, 10^−1 mg/6.15 cm^2) was 100% and the KT100 value (Female house mosquitoes; Table 5, 10^−2 mg/6.15 cm^2) was <5 min. For the same compound, the “The mortality after 24 hours” value (Female house mosquitoes; Table 5, 10^−2 mg/6.15 cm^2) was 100%, the KT100 value (Female house mosquitoes; Table 5, 10^−3 mg/6.15 cm^2) was 50 min and the “The mortality after 24 hours” value (Female house mosquitoes; Table 5, 10^−3 mg/6.15 cm^2) was 83%. The KT100 value (Female house mosquitoes; Table 5, 10^−4 mg/6.15 cm^2) was >120 min, the “The mortality after 24 hours” value (Female house mosquitoes; Table 5, 10^−4 mg/6.15 cm^2) was 17% and the KT100 value (Female house mosquitoes; Table 7, 10^−5 mg/6.15 cm^2) was “cannot achieved; also recorded: Survive”. For the same compound, the “The mortality after 24 hours” value (Female house mosquitoes; Table 7, 10^−5 mg/6.15 cm^2) was 0%, the “dose required for killing the adults of house flies relative to the dose required for killing the adults of house mosquitoes” value (adults of house flies; on the basis of the LD50 value by a microdropping method) was “about 17 times” and the “dose required for killing the adult house flies relative to the dose required for killing northern house mosquitoes” value (adults of house flies; rounded statement) was “about 20 times”. For the same compound, the “dose required for killing the adults of Blattella germanica relative to the dose required for killing the adults of house mosquitoes” value [1] was “about 103 times”.
